# Laboratory results from patent publication US7262212B2, “2,3-dihydro-6-nitroimidazo[2,1-b]oxazoles” (Otsuka Pharmaceutical Co., Ltd., priority 2002, dated 2007).
row,Structure (SMILES),melting point
1,C[C@]1(COC(=O)N2CC=C(c3ccc(C(F)(F)F)cc3)CC2)Cn2cc([N+](=O)[O-])nc2O1,169 to 171 °C
2,C[C@]1(COc2ccc(-n3cncn3)cc2)Cn2cc([N+](=O)[O-])nc2O1,236 to 238.7 °C
3,O=C(Nc1ccc(OC(F)(F)F)cc1)N1CCC2(CC1)Cn1cc([N+](=O)[O-])nc1O2,231 to 233 °C
4,CC(C)(C)OC(=O)N1CC=C(c2ccc(OC[C@@]3(C)Cn4cc([N+](=O)[O-])nc4O3)cc2)CC1,183 to 189 °C (dec.)
5,CC(C)(C)OC(=O)N1CCN(C(=O)c2ccc(OC[C@@]3(C)Cn4cc([N+](=O)[O-])nc4O3)cc2)CC1,222.5 to 224 °C
6,C[C@]1(CN2CCN(C3CCN(C(=O)OCc4ccc(OC(F)(F)F)cc4)CC3)CC2)Cn2cc([N+](=O)[O-])nc2O1,105 to 106 °C
7,CC(C)(C)OC(=O)N1CCN(c2cccc(OC[C@@]3(C)Cn4cc([N+](=O)[O-])nc4O3)c2)CC1,179.5 to 182 °C
8,CC(C)(C)OC(=O)N1CCN(c2ccc(OC[C@@]3(C)Cn4cc([N+](=O)[O-])nc4O3)cc2)CC1,230 to 232 °C
9,C[C@]1(COc2ccc(N3CCN(C(=O)OCc4ccc(Cl)cc4)CC3)cc2)Cn2cc([N+](=O)[O-])nc2O1,184.5 to 187.5 °C
10,C[C@]1(COc2ccc(N3CCN(C(=O)c4ccc(OC(F)(F)F)cc4)CC3)cc2)Cn2cc([N+](=O)[O-])nc2O1,201.5 to 203.2 °C
11,CN(CCOc1ccc(OC(F)(F)F)cc1)CC1(C)Cn2cc([N+](=O)[O-])nc2O1 (stereo not drawn),86.4 to 89.2 °C
12,CN(CCOc1ccc(C(F)(F)F)cc1)C[C@@]1(C)Cn2cc([N+](=O)[O-])nc2O1,123 to 126 °C
13,CN(CCN(C)c1ccc(C(F)(F)F)cc1)C[C@@]1(C)Cn2cc([N+](=O)[O-])nc2O1,135.5 to 137.5 °C
14,CN(CCCOc1ccc(OC(F)(F)F)cc1)C[C@@]1(C)Cn2cc([N+](=O)[O-])nc2O1,92 to 95 °C
15,CCOC(=O)c1ccccc1NCC1(C)Cn2cc([N+](=O)[O-])nc2O1 (stereo not drawn),162.5 to 163.2 °C
16,CN(C[C@@]1(C)Cn2cc([N+](=O)[O-])nc2O1)c1ccccc1,147 to 148 °C
17,CC1(CNC(=O)OCc2ccccc2)Cn2cc([N+](=O)[O-])nc2O1 (stereo not drawn),171.3 to 172.2 °C
18,CN(CC1(C)Cn2cc([N+](=O)[O-])nc2O1)C(=O)OCc1ccccc1 (stereo not drawn),150.3 to 151.6 °C
19,O=C(NCC1Cn2cc([N+](=O)[O-])nc2O1)OCc1ccc(Cl)cc1 (stereo not drawn),182.6 to 182.9 °C
20,CNC(C1CCN(c2ccc(Cl)cc2)CC1)[C@]1(C)Cn2cc([N+](=O)[O-])nc2O1 (stereo partly drawn),179.2 to 182.1 °C
21,CN(C(=O)OCc1ccccc1)C1CCN(CC2(C)Cn3cc([N+](=O)[O-])nc3O2)CC1 (stereo not drawn),138.7 to 139.2 °C
22,CC1(CN2CCC(Cc3ccc(C(F)(F)F)cc3)CC2)Cn2cc([N+](=O)[O-])nc2O1 (stereo not drawn),125 to 126 °C
23,CC1(CN2CCC(C(=O)c3ccc(Cl)cc3)CC2)Cn2cc([N+](=O)[O-])nc2O1 (stereo not drawn),165 to 167 °C
24,C[C@]1(CN2CCC(Cc3ccc(OC(F)(F)F)cc3)CC2)Cn2cc([N+](=O)[O-])nc2O1,111 to 112.5 °C
25,C[C@]1(CN2CCC(N3CCCCC3)CC2)Cn2cc([N+](=O)[O-])nc2O1,163.4 to 164.9 °C
26,C[C@]1(CN2CCC(c3ccc(C(F)(F)F)cc3)CC2)Cn2cc([N+](=O)[O-])nc2O1,138.7 to 139.9 °C

row,Structure (SMILES),melting point
1,C[C@]1(CN2CCC(OCCc3ccc(Cl)cc3)CC2)Cn2cc([N+](=O)[O-])nc2O1,92.5 to 94 °C
2,CN(c1ccc(OC(F)(F)F)cc1)C1CCN(C[C@@]2(C)Cn3cc([N+](=O)[O-])nc3O2)CC1,133.2 to 134.4 °C
3,C[C@]1(CN2CCC(NC(=O)OCc3ccc(OC(F)(F)F)cc3)CC2)Cn2cc([N+](=O)[O-])nc2O1,156.2 to 158.5 °C
4,C[C@]1(CN2CCC([S+]([O-])c3ccc(OC(F)(F)F)cc3)CC2)Cn2cc([N+](=O)[O-])nc2O1 (stereo partly drawn),107 to 109 °C
5,CC(C)COC(=O)N1CCN(CC2(C)Cn3cc([N+](=O)[O-])nc3O2)CC1 (stereo not drawn),176.5 to 177.3 °C
6,CC(C)(C)OC(=O)N1CCN(CCC2(C)Cn3cc([N+](=O)[O-])nc3O2)CC1 (stereo not drawn),190 to 191 °C (dec.)
7,CC1(CN2CCN(C(=O)COc3ccc(Cl)c(Cl)c3)CC2)Cn2cc([N+](=O)[O-])nc2O1 (stereo not drawn),209 to 211 °C
8,CC1(CCN2CCN(C(=O)OCc3ccc(C(F)(F)F)cc3)CC2)Cn2cc([N+](=O)[O-])nc2O1 (stereo not drawn),139 to 140 °C
9,CC1(CCCN2CCN(C(=O)OCc3ccc(C(F)(F)F)cc3)CC2)Cn2cc([N+](=O)[O-])nc2O1 (stereo not drawn),130 to 133 °C
10,CC1(CN2CCN(C(=O)OCC#Cc3ccc(C(F)(F)F)cc3)CC2)Cn2cc([N+](=O)[O-])nc2O1.O=C(O)/C=C\C(=O)O (stereo not drawn),166 °C (dec.)
11,CSc1ccc(COC(=O)N2CCN(CC3(C)Cn4cc([N+](=O)[O-])nc4O3)CC2)cc1 (stereo not drawn),118 to 120 °C
12,C[S+]([O-])c1ccc(COC(=O)N2CCN(CC3(C)Cn4cc([N+](=O)[O-])nc4O3)CC2)cc1 (stereo not drawn),117 to 121 °C
13,CC1(CN2CCN(C(=O)OCc3ccc(C(=O)c4ccccc4)cc3)CC2)Cn2cc([N+](=O)[O-])nc2O1 (stereo not drawn),105 to 107 °C
14,CC1(CCN2CCN(c3nc4ccccc4o3)CC2)Cn2cc([N+](=O)[O-])nc2O1 (stereo not drawn),187.6 to 189.6 °C
15,O=[N+]([O-])c1cn2c(n1)O[C@H](CN1CCN(Cc3ccc(-c4ccccc4)cc3)CC1)C2,224 to 225 °C
16,C[C@]1(CN2CCN(Cc3ccc(OC(F)(F)F)cc3)CC2)Cn2cc([N+](=O)[O-])nc2O1,137 to 138 °C
17,C[C@@]1(CN2CCN(Cc3ccc(C(F)(F)F)cc3)CC2)Cn2cc([N+](=O)[O-])nc2O1,93 to 95 °C
18,C[C@]1(CN2CCN(C(=O)CSc3ccc(Cl)cc3)CC2)Cn2cc([N+](=O)[O-])nc2O1,142 to 145 °C
19,CC1(CN2CCN(C(=O)c3ccc(-c4ccccc4)cc3)CC2)Cn2cc([N+](=O)[O-])nc2O1 (stereo not drawn),116 to 118 °C
20,C[C@]1(CN2CCN(C(=O)c3ccc(C(F)(F)F)cc3)CC2)Cn2cc([N+](=O)[O-])nc2O1,183 to 184 °C
21,COc1ccc(C(=O)N2CCN(CC3(C)Cn4cc([N+](=O)[O-])nc4O3)CC2)cc1 (stereo not drawn),135 to 137 °C
22,C[C@]1(CN2CCN(C(=O)CCCc3ccc(C(F)(F)F)cc3)CC2)Cn2cc([N+](=O)[O-])nc2O1,145 to 146 °C
23,CC1(CN2CCN(S(=O)(=O)c3ccc(Cl)cc3)CC2)Cn2cc([N+](=O)[O-])nc2O1 (stereo not drawn),202 to 204 °C
24,C[C@]1(CN2CCN(C(=O)OCC=Cc3c(F)cc(F)cc3F)CC2)Cn2cc([N+](=O)[O-])nc2O1.O=C(O)/C=C\C(=O)O,158 to 159 °C
25,CC1(CN2CCN(C(=O)NCc3ccc(C(F)(F)F)cc3)CC2)Cn2cc([N+](=O)[O-])nc2O1 (stereo not drawn),201 to 202.5 °C
26,CC1(CN2CCN(C(=O)Nc3ccc(Cl)cc3)CC2)Cn2cc([N+](=O)[O-])nc2O1 (stereo not drawn),185 to 188 °C (dec.)

row,Structure (SMILES),melting point
1,C[C@]1(CN2CCN(C(=O)Nc3ccc(Cl)cc3)CC2)Cn2cc([N+](=O)[O-])nc2O1,156 to 159 °C (dec.)
2,C[C@]1(CN2CCN(C(=O)N3CC=C(c4ccc(C(F)(F)F)cc4)CC3)CC2)Cn2cc([N+](=O)[O-])nc2O1,168.4 to 171.7 °C
3,CC1(CN2CCN(C(=O)N3CCC(c4ccc(Cl)cc4)CC3)CC2)Cn2cc([N+](=O)[O-])nc2O1 (stereo not drawn),186 to 187 °C
4,CC(C)(C)OC(=O)CNC(=O)OCC1(C)Cn2cc([N+](=O)[O-])nc2O1 (stereo not drawn),104 to 106 °C
5,CC1(Cn2nc(-c3ccc(C(F)(F)F)cc3)oc2=O)Cn2cc([N+](=O)[O-])nc2O1 (stereo not drawn),230 to 231 °C
6,CC1(Cn2nc(-c3ccc(Cl)cc3)oc2=O)Cn2cc([N+](=O)[O-])nc2O1 (stereo not drawn),221 to 222 °C
7,CC1(Cn2nc(C=Cc3ccc(Cl)cc3)oc2=O)Cn2cc([N+](=O)[O-])nc2O1 (stereo not drawn),249 to 252 °C
8,CC1(Cn2nc(Cc3ccc(Cl)cc3)oc2=O)Cn2cc([N+](=O)[O-])nc2O1 (stereo not drawn),151 to 153 °C
9,O=c1oc(-c2ccc(OC(F)(F)F)cc2)nn1CC1Cn2cc([N+](=O)[O-])nc2O1 (stereo not drawn),204 to 207 °C
10,CC(C)(C)OC(=O)N1CCC(n2c(=O)n(CC3(C)Cn4cc([N+](=O)[O-])nc4O3)c3ccccc32)CC1 (stereo not drawn),218 to 219.1 °C
11,Cn1c(=O)n(CC2(C)Cn3cc([N+](=O)[O-])nc3O2)c2cc(C(F)(F)F)ccc21 (stereo not drawn),232.4 to 234.7 °C
12,CCCCCCn1c(=O)n(CC2(C)Cn3cc([N+](=O)[O-])nc3O2)c2cc(Cl)ccc21 (stereo not drawn),168.1 to 169.3 °C
13,CCOC(=O)c1ccc2c(c1)n(CC1(C)Cn3cc([N+](=O)[O-])nc3O1)c(=O)n2C (stereo not drawn),265.8 to 266.7 °C
14,CC1(Cn2c(=O)n(-c3ccc(F)cc3)c3ccccc32)Cn2cc([N+](=O)[O-])nc2O1 (stereo not drawn),254.1 to 254.7 °C
15,CC1(COC(=O)Nc2cccc(F)c2)Cn2cc([N+](=O)[O-])nc2O1 (stereo not drawn),168 to 169 °C
16,COc1ccc(CN2CCN(CC3(C)Cn4cc([N+](=O)[O-])nc4O3)C2=O)c(OC)c1 (stereo not drawn),175 to 175.4 °C
17,CC1(CN2C(=O)C(F)(F)c3ccccc32)Cn2cc([N+](=O)[O-])nc2O1 (stereo not drawn),202 to 206 °C
18,CC1(COC(=O)Nc2ccc(Cl)cc2)Cn2cc([N+](=O)[O-])nc2O1 (stereo not drawn),179 to 181 °C
19,CC1(CCc2nnnn2-c2ccccc2)Cn2cc([N+](=O)[O-])nc2O1 (stereo not drawn),158 to 159 °C
20,CC1(CN2C(=O)c3ccccc3C2=O)Cn2cc([N+](=O)[O-])nc2O1 (stereo not drawn),264.6 to 268.3 °C
21,CC1(CCN2CCN(c3ccccc3)C(=O)C2)Cn2cc([N+](=O)[O-])nc2O1 (stereo not drawn),199 to 202 °C (dec.)
22,CC1(CCCN2CCN(C(C)(C)C)C(=O)C2)Cn2cc([N+](=O)[O-])nc2O1 (stereo not drawn),147 to 149 °C (dec.)
23,C[C@]1(CN2CCC3(CC2)OCCO3)Cn2cc([N+](=O)[O-])nc2O1,166.5 to 168.2 °C
24,CN1CCC2(CC1)Cn1cc([N+](=O)[O-])nc1O2,237 to 239 °C (dec.)
25,O=C(CN1CCN(c2nc3ccccc3o2)CC1)N1CCC2(CC1)Cn1cc([N+](=O)[O-])nc1O2,260 to 263 °C (dec.)
26,CN(C(=O)OC[C@@]1(C)Cn2cc([N+](=O)[O-])nc2O1)c1ccc(Cl)cc1,131 to 133 °C
